Drawing on patent US20240246941A1, “SUBSTITUTED 4-(3-AMINOPROP-1-YL)AMINOQUINOLINE ANALOGS AS MODULATORS OF MELANOMA-ASSOCIATED ANTIGEN 11 UBIQUITIN LIGASE” (ST. JUDE CHILDREN'S RESEARCH HOSPITAL, INC., priority 2020, published 2024), this text covers TR-FRET signal for 72 compounds.

Chain of MAGE-A11:PCF11 (P43364 218-429): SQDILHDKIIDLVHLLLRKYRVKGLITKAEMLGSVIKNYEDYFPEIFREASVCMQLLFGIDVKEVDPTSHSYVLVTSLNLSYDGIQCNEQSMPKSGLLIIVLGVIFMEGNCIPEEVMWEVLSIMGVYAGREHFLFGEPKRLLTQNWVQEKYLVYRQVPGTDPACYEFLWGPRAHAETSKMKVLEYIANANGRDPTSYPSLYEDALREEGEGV

For the first experiment, the target named is MAGE-A11:PCF11 (Homo sapiens (Human), UniProt P43364). The experiment is described as follows: TR-FRET single point screening at 15 μM. Type of experiment: binding. Further details: unit not given here. As to conditions: single point TR-FRET screening at 15 μM against MAGE-A11:PCF11. An outline of the steps:
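Single-point screen at 15 μM (0.25% DMSO) measuring disruption of GST-MAGEA11 (5 nM) binding to FAM-PCF11_4 peptide (200 nM) detected by Tb-anti-GST (5 nM). Buffer 50 mM Tris pH 7.5, 20 mM MgCl2, 0.1 mg/ml BSA, 1 mM DTT; 90 min at ~25 °C; 520/490 nm ratio converted to % inhibition versus controls.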
In general terms: In TR-FRET formats the signal depends on donor and acceptor labels being close together.
Regarding `CCCCCCN1CCC(Nc2ccnc3cc(Cl)ccc23)CC1` [SJ000523108], the TR-FRET signal stood at 29.3.
Take `COc1ccc2nc3cc(Cl)ccc3c(NCCCNCc3c(F)cccc3OC)c2c1` [SJ000520915]: the TR-FRET signal was −298.8.
The same measure, in the same setting: the figure for `CCN1CCN(c2c(S(=O)(=O)c3ccccc3)cnc3ccc(OC)cc23)CC1` [SJ000083958] is 0.1242; for `CCOC(=O)c1cnc2ccc(Br)cc2c1NCCN1CCOCC1` [SJ000031339] it is −47.24.
`CCc1ccc2ncc(S(=O)(=O)c3ccc(C)c(C)c3)c(N3CCN(C)CC3)c2c1` [SJ000247332] had a TR-FRET signal of 2.973.
Same read-out and setting: then `Cc1ccc(S(=O)(=O)c2cnc3ccc(F)cc3c2N2CCN(c3ccccc3)CC2)cc1C` [SJ000117052], with −16.9; and `CCCN(CCCNc1c2ccc(Cl)cc2nc2ccc(OC)cc12)Cc1ccco1` [SJ000520935], with −202.6.
Still for that read-out and setting: then `O=S(=O)(c1ccccc1)c1cnc2ccc(F)cc2c1N1CCN(c2ccc(F)cc2)CC1` [SJ000083980], with −11.08; and `COC(=O)CCCCCN(CCCCNc1ccnc2cc(Cl)ccc12)Cc1ccccc1` [SJ000520432], with 23.58.
Take `CCCN(CCCNc1c2ccc(Cl)cc2nc2ccc(OC)cc12)Cc1ccc2ccccc2c1` [SJ000520953]: the TR-FRET signal is on record as −129.1.
On the same count and under the same terms, then `COc1ccc2nc3cc(Cl)ccc3c(NCCCNCc3ccc(F)cc3)c2c1` [SJ000523035], with −398.2.
`CCCN(CCCNc1c2ccc(Cl)cc2nc2ccc(OC)cc12)Cc1cccc(C)c1` [SJ000520954] displayed a TR-FRET signal of −157.8.
`FC(F)(F)c1cccc(CN(CCCCNc2ccnc3cc(Cl)ccc23)Cc2ccccc2)c1` [SJ000520455] gave a TR-FRET signal of 26.38.
On the same count and under the same terms, the figure for `CCOC(=O)c1cnc2c(C)c(C)ccc2c1NCCN(C)C` [SJ000134078] is 8.538; for `COc1ccc2nc3cc(Cl)ccc3c(NCCCNCc3sccc3C)c2c1` [SJ000361094] it is −321.3.
`Cc1csc(CN(CCCCNc2ccnc3cc(Cl)ccc23)Cc2ccccc2)n1` [SJ000520456]: the TR-FRET signal is listed as −12.86.
Still for that read-out and setting: the figure for `COc1ccc2nc3cc(Cl)ccc3c(NCCCNCc3nccs3)c2c1` [SJ000520989] is −355.2.
`CCN1CCN(c2c(C(=O)c3ccc(C)cc3)cnc3ccc(OC)cc23)CC1` [SJ000247282] returned a TR-FRET signal of 3.9.
Same read-out and setting: then `O=S(=O)(c1ccccc1)c1cnc2ccc(F)cc2c1N1CCN(c2ccccc2)CC1` [SJ000083976], with −31.1; and `CCCN(CCCNc1c2ccc(Cl)cc2nc2ccc(OC)cc12)Cc1ccc(OC)cc1` [SJ000520943], with −241.4.
Same read-out and setting: the figure for `CCCN(CCCNc1c2ccc(Cl)cc2nc2ccc(OC)cc12)Cc1cn(C(C)=O)c2ccccc12` [SJ000522736] is −192.4; for `CN(C)c1ccc(CN2CCC(Nc3ccnc4cc(Cl)ccc34)CC2)cc1` [SJ000523102] it is 13.09; for `O=S(=O)(c1ccc(Br)cc1)N1CCN(c2ccnc3cc(Cl)ccc23)CC1` [SJ000201754] it is −16.75.
Still for that read-out and setting: then `COc1ccccc1CN1CCC(Nc2ccnc3cc(Cl)ccc23)CC1` [SJ000523097], with 8.596; and `CCN1CCN(c2c(S(=O)(=O)c3ccc(OC)cc3)cnc3cc(OC)c(OC)cc23)CC1` [SJ000083972], with 7.411; and `CCCN(CCCNc1c2ccc(Cl)cc2nc2ccc(OC)cc12)CC1CCCCC1` [SJ000520938], with −163.9.
As for `CCOC(=O)c1cnc2ccc(OC)cc2c1N1CCN(C)CC1` [SJ000279507], the TR-FRET signal is reported as −2.791.
As for `CCc1ccc(S(=O)(=O)c2cnc3ccccc3c2N2CCN(c3ccccc3OC)CC2)cc1` [SJ000117069], the TR-FRET signal is on record as −47.44.
As for `CCCN(CCCNc1c2ccc(Cl)cc2nc2ccc(OC)cc12)Cc1ccccc1F` [SJ000520944], the TR-FRET signal is recorded as −118.6.
Turning to `COc1ccc2nc3cc(Cl)ccc3c(NCCCNCc3cccc(C#N)c3)c2c1` [SJ000523037], the TR-FRET signal was −333.2.
`COc1ccccc1N1CCN(c2c(S(=O)(=O)c3ccccc3)cnc3ccc(C)cc23)CC1` [SJ000315081] registered a TR-FRET signal of −19.55.
On the same count and under the same terms, the figure for `Clc1ccc2c(NC3CCN(CCCc4ccccc4)CC3)ccnc2c1` [SJ000523104] is 20.65; for `CCOC(=O)c1cnc2c(Cl)cc(Cl)cc2c1NCCN1CCOCC1` [SJ000175864] it is −13.06.
The same measure, in the same setting: then `COc1ccc2nc3cc(Cl)ccc3c(NCCCNCc3ccc4ccccc4c3)c2c1` [SJ000523038], with −109.5; and `CCC(C)CNCCCNc1c2ccc(Cl)cc2nc2ccc(OC)cc12` (stereo not drawn) [SJ000361093], with −451.5.
Consider `CCCN(CCCCNc1ccnc2cc(Cl)ccc12)Cc1ccccc1` [SJ000311205], for which the TR-FRET signal is 7.684.
In turn, `CCOc1ccc2ncc(S(=O)(=O)c3ccccc3)c(N3CCN(Cc4ccccc4)CC3)c2c1` [SJ000247249] had a TR-FRET signal of −15.91.
Take `Cn1ccnc1CN(CCCCNc1ccnc2cc(Cl)ccc12)Cc1ccccc1` [SJ000520435]: the TR-FRET signal was found to be 5.888.

Still in this experiment, the particulars now being: single point TR-FRET screening of quinoline compounds against MAGE-A11:PCF11; 15 μM.
In the case of `CCCN(CCCNc1ccnc2cc(C(F)(F)F)ccc12)Cc1ccccc1OC` [SJ000523072], the TR-FRET signal worked out at 32.61.
The compound `CCCCNCCCNc1ccnc2cc(C(F)(F)F)ccc12` [SJ000521055] showed a TR-FRET signal of 18.54.
Compound `CCCN(CCCNc1ccnc2cc(Cl)ccc12)Cc1cccnc1Br` [SJ000523006] returned a TR-FRET signal of 13.31.
Same read-out and setting: then `COc1ccc(C(F)(F)F)cc1CN(CCCNc1ccnc2cc(Cl)ccc12)Cc1ccccc1` [SJ000520450], with 23.18; and `FC(F)(F)c1ccc2c(NCCCNCc3cc(Br)cs3)ccnc2c1` [SJ000521056], with 32.72.
On to `Fc1ccccc1CN(CCCNc1ccnc2cc(Cl)ccc12)Cc1ccccc1` [SJ000361175], for which the TR-FRET signal amounted to 0.9627.
The same measure, in the same setting: then `CCC(C)CN(CCCNc1ccnc2cc(Cl)ccc12)Cc1ccccc1` (stereo not drawn) [SJ000361186], with 29.6; and `c1ccc(CCc2ccc3c(NCCCNCc4ccco4)ccnc3c2)cc1` [SJ000311254], with 15.95; and `CCCN(CCCNc1c2ccc(Cl)cc2nc2ccc(OC)cc12)Cc1cccnc1Br` [SJ000522977], with 0.2567.
Turning to `CCCN(CCCNc1ccnc2cc(C(F)(F)F)ccc12)Cc1cc(OC)ccc1O` [SJ000361263], the TR-FRET signal stood at 25.26.
The same measure, in the same setting: then `O=[N+]([O-])c1ccc(CN(CCCNc2ccnc3cc(Cl)ccc23)Cc2ccccc2)cc1` [SJ000361179], with 20.2.
`FC(F)(F)c1ccc(-c2ccc3c(NCCCNCc4ccco4)ccnc3c2)cc1` [SJ000311278] had a TR-FRET signal of 56.21.
Same read-out and setting: the figure for `Clc1ccc2c(NCCCNCC3CCOC3)ccnc2c1` (stereo not drawn) [SJ000521038] is 0.4026; for `CCOC(=O)c1cnc2ccc(Br)cc2c1NCCCN1CCOCC1` [SJ000176507] it is −22; for `N#Cc1ccc(Cc2ccc3c(NCCCNCc4ccco4)ccnc3c2)cc1` [SJ000311302] it is 20.43.
As for `CCCN(CCCNc1ccnc2cc(C(F)(F)F)ccc12)Cc1cccc2ccccc12` [SJ000523074], the TR-FRET signal came to 14.32.
Still for that read-out and setting: the figure for `CCCN(CCCNc1ccnc2cc(Cl)ccc12)Cc1ccc(CC)cc1` [SJ000523001] is 30.13; for `Clc1ccc2c(NCCCNCc3ccc[nH]3)ccnc2c1` [SJ000575192] it is 52.99.
The same measure, in the same setting: the figure for `CCCN(CCCNc1ccnc2cc(C(F)(F)F)ccc12)Cc1c(F)cccc1C(F)(F)F` [SJ000520481] is 11.47; for `CCCN(CCCNc1c2ccc(Cl)cc2nc2ccc(OC)cc12)Cc1ccc(C)o1` [SJ000520932] it is 0.9854.
The same measure, in the same setting: the figure for `Clc1ccc2c(NCCCNCc3ccncc3)ccnc2c1` [SJ000523049] is 6.077; for `CCCN(CCCNc1ccnc2cc(C(F)(F)F)ccc12)Cc1ccoc1` [SJ000361267] it is 28.55; for `Cn1ccnc1CNCCCNc1ccnc2cc(C(F)(F)F)ccc12` [SJ000521068] it is 10.19.
Regarding `CCCN(CCCNc1ccnc2cc(Cl)ccc12)Cc1ccc(OC)c(F)c1` [SJ000522994], the TR-FRET signal was found to be 15.16.
Still for that read-out and setting: then `Cc1ccsc1CNCCCNc1ccnc2cc(Cl)ccc12` [SJ000311189], with 6.554.
Consider `CCCN(CCCNc1c2ccc(Cl)cc2nc2ccc(OC)cc12)Cc1nc2ccccc2s1` [SJ000522969], for which the TR-FRET signal was −68.77.
`Cc1ccc(CNCCCNc2ccnc3cc(C(F)(F)F)ccc23)o1` [SJ000361109] displayed a TR-FRET signal of 14.45.
The same measure, in the same setting: then `COc1ccc2nc3cc(Cl)ccc3c(NCCCNCc3c4ccccc4cc4ccccc34)c2c1` [SJ000361099], with −3.728.
For `CCCN(CCCNc1ccnc2cc(C(F)(F)F)ccc12)Cc1cc(OC(F)(F)F)ccc1OC` [SJ000520485], the TR-FRET signal was determined as 5.6.
For the compound `CCCN(CCCNc1c2ccc(Cl)cc2nc2ccc(OC)cc12)CCCSC` [SJ000522730], the TR-FRET signal turned out to be 0.7867.
Same read-out and setting: then `CCCN(CCCNc1c2ccc(Cl)cc2nc2ccc(OC)cc12)Cc1ccc(Cl)c(C(F)(F)F)c1` [SJ000522974], with 16.36.
Still for that read-out and setting: the figure for `CCCN(CCCNc1ccnc2cc(Cl)ccc12)Cc1ccc2c(c1)OCO2` [SJ000522753] is 18.75.
`CCCN(CCCNc1ccnc2cc(Cl)ccc12)CCC(C)(C)C` [SJ000357570] registered a TR-FRET signal of 12.11.
In turn, `CCOC(=O)c1cnc2c(CC)cccc2c1NCCCN1CCOCC1` [SJ000185196] displayed a TR-FRET signal of −4.499.
